Measurements as given in ChEMBL document CHEMBL3763150, “New antibacterial isocoumarin glycosides from a wetland soil derived fungal strain Metarhizium anisopliae” (2016).
Converted amounts (≈) assume the structure as drawn. The source made the active and inactive calls. The calls are words filed in the database; no cut-off is given here.

Experiments:
Pseudomonas aeruginosa [1] = test: Antibacterial activity against clinical isolates of Pseudomonas aeruginosa PAOA incubated for 20 hrs by two fold dilution method; type: functional
Pseudomonas aeruginosa [2] = test: Antibacterial activity against clinical isolates of Pseudomonas aeruginosa PAOA assessed as inhibition of rhamnolipid secretion at 32 ug/ml; type: functional, organism-based
Pseudomonas aeruginosa [3] = test: Antibiofilm activity against clinical isolates of Pseudomonas aeruginosa PAOA at 16 to 64 ug/ml incubated for 20 hrs by crystal violet staining based spectrophotometric analysis; type: functional, organism-based
Pseudomonas aeruginosa [4] = test: Antibacterial activity against clinical isolates of Pseudomonas aeruginosa PAOA assessed as inhibition of pyocyanine secretion at 64 ug/ml; type: functional, organism-based
Pseudomonas aeruginosa [5] = test: Antibacterial activity against clinical isolates of Pseudomonas aeruginosa PAOA assessed as inhibition of rhamnolipid secretion at 64 ug/ml; type: functional, organism-based

MIC (Pseudomonas aeruginosa [1]) [µg/mL]	Structure (SMILES)	other results
> 128	C/C=C/CC[C@H]1Cc2c(O)c(O[C@@H]3O[C@H](CO)[C@@H](OC)[C@H](O)[C@H]3O)cc(O)c2C(=O)O1	
> 128	C/C=C/CC[C@H]1Cc2cc(O[C@@H]3O[C@H](CO)[C@@H](OC)[C@H](O)[C@H]3O)cc(O)c2C(=O)O1	
> 128	C/C=C/C=C/[C@H]1Cc2cc(O[C@@H]3O[C@H](CO)[C@@H](OC)[C@H](O)[C@H]3O)cc(O)c2C(=O)O1	

The next lines start with the compound.

Structure (SMILES)	MIC (Pseudomonas aeruginosa [1]) [µg/mL]	other results
C/C=C/C=C/[C@H]1Cc2cc(O[C@@H]3O[C@H](CO)[C@@H](OC)[C@H](O)[C@H]3O)c(OC)c(O)c2C(=O)O1	> 128	
C/C=C/CCc1cc2cc(O[C@@H]3O[C@H](CO)[C@@H](OC)[C@H](O)[C@H]3O)c(OC)c(O)c2c(=O)o1	> 128	
C/C=C/CC[C@H]1Cc2cc(O[C@@H]3O[C@H](COC(C)=O)[C@@H](OC)[C@H](O)[C@H]3O)c(OC)c(O)c2C(=O)O1	> 128	inhibition (Pseudomonas aeruginosa [2]): Active; Activity (Pseudomonas aeruginosa [3]): Active; inhibition (Pseudomonas aeruginosa [4]): Active; inhibition (Pseudomonas aeruginosa [5]): Active
C/C=C/CC[C@H]1Cc2cc(O[C@@H]3O[C@H](CO)[C@@H](OC)[C@H](O)[C@H]3O)c(OC)c(O)c2C(=O)O1	> 128	
O=C1C=C(Br)/C(=C/Br)O1	128 (≈ 504 µM)	inhibition (Pseudomonas aeruginosa [2]): Active; Activity (Pseudomonas aeruginosa [3]): Active
C/C=C/CC[C@H]1Cc2cc(O)c(O[C@@H]3O[C@H](CO)[C@@H](OC)[C@H](O)[C@H]3O)c(O)c2C(=O)O1	> 128	
